Results as given in patent publication US20250041312A1, “METHODS OF ADMINISTERING A MODULATOR OF HEMOGLOBIN” (Global Blood Therapeutics, Inc., priority 2021, published 2025).
Read-outs that look alike come from different tables or passages of the source. Marks after values point to notes of the source that are not given here.

Tests used:
[1] = SCD cohort safety (TEAEs); format: in vivo, human
Method: (§1) After a washout period of at least 56 days (so that elimination PK of Compound I could be assessed), the patients were administered a loading dose of 300 mg per day of Compound I for one day followed by 200 mg per day of Compound I for one day, and then were administered a maintenance dose of 50 mg per day of Compound I for five weeks (“MAD-1 Cohort”). The same patients then received another loading dose of 500 mg per day of Compound I for one day followed by 400 mg per day of Compound I for one day, and then were administered another maintenance dose of 100 mg per day of Compound I for three weeks (“MAD-2 Cohort”). The total treatment period of the MAD-1 Cohort and MAD-2 Cohort was 8 weeks.
(§2) Primary endpoints were safety and tolerability. Key secondary endpoints included PK and the relationship between time-matched Compound I concentrations and changes in clinical measures of anemia and hemolysis from baseline.
The majority of treatment emergent adverse events were grade 1 or 2 and unrelated to study drug.
(§3) Following the conclusion of the MAD-2 study and a washout period of about 8 months, the selected patients (n=4) were administered a loading dose of 300 mg BID for 4 days, followed thereafter by a maintenance dose of 150 mg QD (MAD-3 Cohort).

[2] = target: T1, hemoglobin (Homo sapiens, UniProt P68871+P69905, E7V); test: Percent Hb occupancy in SCD patients (single dose, MAD-1, MAD-2, MAD-3); format: in vivo; settings: for receptor occupancy at 150 mg / receptor occupancy at 50 mg / receptor occupancy at 100 mg: human; for receptor occupancy at 50 mg: 50 mg QD × 5 weeks (MAD-1); for receptor occupancy at 100 mg: 100 mg QD × 3 weeks (MAD-2)
T1 construct: divided by the molar concentration of hemoglobin in RBCs; endogenous in cells; host or cells: red blood cells / blood of patients with SCD (HbSS)
Method: In some embodiments, the therapeutically effective amount is determined by measuring the percent of hemoglobin occupied by the compound, i.e., the percent Hb occupancy. The percent Hb occupancy is a measure of target engagement defined as the percentage of hemoglobin bound by a compound (e.g., Compound I) calculated as the molar concentration of the compound (e.g., Compound I) in RBCs divided by the molar concentration of hemoglobin in RBCs (the mean corpuscular hemoglobin concentration calculated from the hematology panel). The values for concentration of a compound (e.g., Compound I) in RBCs is calculated from the concentrations in whole blood and plasma, and the hematocrit.
as §1, §3

[3] = SCD cohort clinical measures of anemia and hemolysis (Hb, hematocrit, hemolysis markers); format: in vivo, human
Method: as §1, §2, §3
Primary endpoints were safety and tolerability. Key secondary endpoints included PK and the relationship between time-matched Compound I concentrations and the changes in clinical measures of anemia and hemolysis from baseline.

[4] = MAD-3 SCD patients N=4 (300 mg BID x 4 days, then 150 mg QD)
[5] = SCD N=6, single dose and multiple dose portions (Table 13A)
[6] = SCD n=6, single dose, MAD-1 (50 mg qd) and MAD-2 (100 mg qd) (Table 13B)
[7] = MAD-3 (150 mg QD) week 6, SCD patient 0001
[8] = MAD-3 (150 mg QD) week 6, SCD patient 0003 (did not adhere to regimen)
[9] = MAD-3 (150 mg QD) week 6, SCD patient 0005
[10] = SCD, read-out: Hemoglobin Occupancy (%) at Cmax, mean
[11] = SCD, read-out: Hemoglobin Occupancy (%) at Cmin, mean
[12] = MAD-3 (150 mg QD) week 6, SCD patient 0004
[13] = six SCD patients, 8 weeks (MAD-1 then MAD-2)

SMILES: O=Cc1c(O)cccc1OC[C@@H]1COCCN1C(=O)c1cccnc1CCO [Compound I, (S)-2-hydroxy-6-((4-(2-(2-hydroxyethyl)nicotinoyl)morpholin-3-yl)methoxy)benzaldehyde]
- Number of SAEs [1, 4]: 0
- Number of TEAEs [1, 4]: 6
- Number of TEAEs grade ≥ 3 [1, 4]: 0
- Number of TEAEs leading to study drug discontinuation [1, 4]: 0
- Number of drug-related TEAEs [1, 4]: 1
- Number of TEAEs [1, 5]: 24
- Number of TEAEs grade ≥ 3 [1, 5]: 5
- Number of TEAEs leading to study drug discontinuation [1, 5]: 0
- Number of drug-related TEAEs ([1]; SCD N=6, single dose and multiple dose portions (Table 13A), 1 grade 2 headache, 2 grade 1 diarrhea): 3^a
- Number of SAEs ([1]; SCD N=6, single dose and multiple dose portions (Table 13A), SAEs were grade 3 VOCs): 2^b
- safety and tolerability ([1]; SCD cohort, single dose portion and multiple ascending dose phases): safe and well tolerated
- Number of SAEs [1, 6]: 3
- Number of TEAEs [1, 6]: 33
- Number of TEAEs grade ≥ 3 [1, 6]: 7
- Number of TEAEs leading to study drug discontinuation [1, 6]: 0
- Number of drug-related TEAEs [1, 6]: 4
- tolerability ([1]; adults with SCD, daily maintenance doses of 150 mg): well tolerated
- % Hb occupancy based on Cmax ([2]; SCD single 100 mg, mean): 3.3%
- patients who achieved Hb occupancy >40% ([2]; SCD, 100 mg dose level): two out of six
- mean Hb occupancy ([2]; adults with SCD, maintenance doses 100 mg and 150 mg QD): > 30%
- receptor occupancy at 150 mg [2, 7]: 48%
- receptor occupancy at 150 mg [2, 8]: 7%
- receptor occupancy at 150 mg ([2]; MAD-3 (150 mg QD) week 6, SCD patient 0004 (Hb and hematocrit increases lower the occupancy value)): 31%
- receptor occupancy at 150 mg [2, 9]: 46%
- receptor occupancy at 50 mg [2, 10]: 17.7%
- receptor occupancy at 50 mg [2, 11]: 15.3%
- receptor occupancy at 100 mg [2, 10]: 32.6%
- receptor occupancy at 100 mg [2, 11]: 29.8%
- average hematocrit after washout (returned to baseline levels) ([3]; 5 SCD subjects, after 15-week washout, vs. 23.02%): 23.46%
- Hb levels [3, 7]: 12.9 g/dL
- Hb levels [3, 8]: 8.9 g/dL
- Hematocrit [3, 8]: 27.6%
- Hb levels [3, 12]: 13.6 g/dL
- Hematocrit [3, 12]: 37.8%
- Hb levels [3, 9]: 10.9 g/dL
- Hematocrit [3, 9]: 30.9%
- decrease in mean hemoglobin after the last dose ([3]; SCD, 15-week washout after MAD-2): 2.2 g/dL
- mean increase in hematocrit from baseline ([3]; SCD, baseline to end of week 8 of treatment): 6.5%
- hemolysis markers (reticulocytes, absolute reticulocytes, LDH, indirect bilirubin) ([3]; all six SCD subjects, 8 weeks (MAD-1 then MAD-2)): improvements in hemolysis markers
- Hb increase at the end of the study (maximum) [3, 13]: up to 1.3 g/dL
- Hb mean increase at the end of the study [3, 13]: 2.3 g/dL
